Consider 19 compounds from ChEMBL document CHEMBL1201862, “PubChem BioAssay data set” (2004).

As usually defined, the EC50 is the concentration that produces a half-maximal response. For orientation: IC50 means the point on the concentration scale where inhibition reaches its midpoint. Broadly, the AC50 is the concentration giving half of the maximal activity seen.

Experiment [1] can be described thus: Luminescence Cell-Based Dose Confirmation HTS to Identify Activators of 5'UTR Stem-Loop Driven Alpha-Synuclein mRNA Translation in H4 Neuroglioblastoma Cells. [Related pubchem assays: 1829 (Project Summary), 1814 (Primary HTS)]. The format is functional.
The nature of experiment [2]: Luminescence Cell-Based Dose Response HTS to Identify Activators of Luciferase Translation or Activity in H4 […] Cells. [Related pubchem assays: 1829 (Project Summary), 1814 (Primary HTS)]. The format is functional.
The subject of a further experiment is H4. Briefly: Luminescence Cell-Based Dose Response HTS to Identify Activators of 5'UTR Stem-Loop Driven Prion Protein mRNA Translation in H4 Neuroglioblastoma Cells. [Related pubchem assays: 1829 (Project Summary), 1814 (Primary HTS)]. The format is functional. To be noted: Homo sapiens.
Experiment [3] can be described thus: Trypanosoma cruzi growth suppression in host cells – NIH3T3 host cells, beta-gal luminescence, confirmation (AID 2044).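 Also: intracellular parasites grown in NIH/3T3 mouse fibroblasts as host cells; luminescent beta-galactosidase reporter signal from transgenic T. cruzi replicating inside host cells; inhibitors lower the luminescence signal.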 Type of experiment: functional, cell-based.
A short description of experiment [4]: microbe, parasite or virus in culture. Type of experiment: functional. To be noted: Mycobacterium tuberculosis.
The nature of experiment [5]: NIH3T3 cell viability loss – ATP luminescence, mouse fibroblasts, counter-screen, dose response (AID 2010).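 Also: cells exposed to compound for about 90 hours before reading.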 Type of experiment: functional, cell-based. On the technique in general: Counterscreens check selectivity or assay interference.
Experiment [6] in a line: HEK-293T viability loss after treatment – luminescence, T-cell screen hits, cytotoxicity control for TCR NF-kB inhibitor project, dose response (AID 489026).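 Also: cells exposed to compound about 14 hours before the viability readout.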 The format is functional, cell-based.
Experiment [7] in a line: viability of PTEN-deleted HCT116 cells – cell-based, HCT116 PTEN knockout, dose response (AID 1047).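 Also: HCT116 colon tumor cells with PTEN knocked out; cells exposed to compound for 60 hours before readout; potency for loss of cell viability measured by luminescence.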 The format is functional.
Experiment [8] in a line: viability of HCT116 lacking mutant beta-catenin – cell-based, human colon tumor, dose response (AID 1045).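 Also: HCT116 colon tumor cells with beta catenin knocked out; cells exposed to compound for 60 hours.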 Type of experiment: functional.
For experiment [9], the system named is BJ. In words: BJ-TERT fibroblast viability loss – cell-based, RAS-independent, luminescence, dose response (AID 1933). Type of experiment: functional. To be noted: Homo sapiens.
Experiment [10] has as its system BJ. In words: cells. The format is functional, cell-based. The conditions noted are these: Homo sapiens.
The subject of experiment [11] is BJ. Briefly: BJ-TERT-LT-ST fibroblast viability loss – cell-based, RAS-independent, luminescence, dose response (AID 1935).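 Also: BJ fibroblasts immortalized with TERT plus LT and ST oncogenes.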 To be noted: Homo sapiens. The format is functional.
Experiment [12] in a line: DRD fibroblast viability loss – cell-based, non-viral oncogenic, luminescence, dose response (AID 1934). The format is functional. The conditions noted are these: Homo sapiens.
The nature of experiment [13]: Luminescence Cell-Based Dose Retest to Confirm Inhibitors of Cancer Stem Cells. [Related pubchem assays (depositor defined):AID2717, AID2721]. The format is functional. To be noted: Homo sapiens.
In a further experiment the target is Large T antigen (Simian virus 40, UniProt P03070). The format is functional, Betapolyomavirus macacae.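 Also: Confirmatory-stage PubChem screen for compounds that inhibit SV40 T antigen.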
Chain of Large T antigen (P03070 whole entry): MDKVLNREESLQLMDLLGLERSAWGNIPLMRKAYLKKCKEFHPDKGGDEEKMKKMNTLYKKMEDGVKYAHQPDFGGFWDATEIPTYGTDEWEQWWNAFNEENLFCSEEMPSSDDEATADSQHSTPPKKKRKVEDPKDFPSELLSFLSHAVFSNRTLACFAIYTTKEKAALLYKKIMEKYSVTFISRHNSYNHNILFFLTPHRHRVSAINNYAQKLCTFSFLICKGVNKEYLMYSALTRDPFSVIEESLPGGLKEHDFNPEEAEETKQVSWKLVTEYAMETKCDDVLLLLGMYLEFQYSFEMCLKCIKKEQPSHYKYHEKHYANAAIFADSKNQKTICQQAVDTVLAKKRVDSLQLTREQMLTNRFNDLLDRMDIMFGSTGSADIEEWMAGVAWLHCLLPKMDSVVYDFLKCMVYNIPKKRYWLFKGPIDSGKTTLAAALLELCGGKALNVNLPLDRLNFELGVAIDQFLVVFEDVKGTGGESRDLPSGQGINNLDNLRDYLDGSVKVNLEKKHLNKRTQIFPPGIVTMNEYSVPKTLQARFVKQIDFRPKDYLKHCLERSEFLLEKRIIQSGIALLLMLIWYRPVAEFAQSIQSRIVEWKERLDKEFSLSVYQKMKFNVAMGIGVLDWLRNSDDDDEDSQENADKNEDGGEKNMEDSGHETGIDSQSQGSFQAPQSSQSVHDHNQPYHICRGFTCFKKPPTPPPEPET
Experiment [14] in a line: HEK-293T cell viability reduction – luminescence, B-cell screen hits, cytotoxicity control for BCR NF-kB inhibitor project, dose response (AID 489021).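 Also: HEK-293T cells carrying an NF-kB luciferase reporter; cells exposed to compound for about 14 hours before viability readout.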 The format is functional, cell-based.
The target in experiment [15] is T1, Heat shock factor protein 1 (Mus musculus, UniProt P38532).
T1 sequence (P38532 whole entry): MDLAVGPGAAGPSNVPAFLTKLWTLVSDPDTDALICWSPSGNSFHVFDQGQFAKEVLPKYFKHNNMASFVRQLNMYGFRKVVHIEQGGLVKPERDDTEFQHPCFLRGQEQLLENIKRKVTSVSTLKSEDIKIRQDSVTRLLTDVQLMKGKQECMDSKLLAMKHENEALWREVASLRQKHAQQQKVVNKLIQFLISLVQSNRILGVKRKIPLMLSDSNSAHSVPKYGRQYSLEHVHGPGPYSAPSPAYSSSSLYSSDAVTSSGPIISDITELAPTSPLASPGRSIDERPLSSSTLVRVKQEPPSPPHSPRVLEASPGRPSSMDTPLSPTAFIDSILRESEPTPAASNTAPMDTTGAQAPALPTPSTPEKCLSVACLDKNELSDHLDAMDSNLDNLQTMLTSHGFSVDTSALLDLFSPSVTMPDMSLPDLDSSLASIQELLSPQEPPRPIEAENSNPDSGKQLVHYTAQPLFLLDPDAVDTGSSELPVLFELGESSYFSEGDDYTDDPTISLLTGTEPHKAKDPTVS
Briefly: decrease of HSF1-responsive luciferase luminescence – cell-based, NIH3T3, dose retest, confirmation (AID 2382).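 Also: NIH3T3 fibroblasts with HSF1-driven luciferase reporter stressed by proteasome inhibitor MG132; luminescence from HSF1-driven luciferase expression after 8 hours of MG132 stress.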 The format is functional.

The next experiment addresses Prothrombin (Homo sapiens, UniProt P00734). Briefly: Thrombin 1536 HTS Dose Response Confirmation. [Related pubchem assays: 1046 (Thrombin 1536 HTS; hits were confirmed in this assay)]. The format is functional.
For another experiment, the target named is Nonstructural protein 1 (Influenza A virus, UniProt Q194T2). Type of experiment: functional, Influenza A virus (A/California/07/2009(H1N1)).
Chain of Nonstructural protein 1 (Q194T2 whole entry): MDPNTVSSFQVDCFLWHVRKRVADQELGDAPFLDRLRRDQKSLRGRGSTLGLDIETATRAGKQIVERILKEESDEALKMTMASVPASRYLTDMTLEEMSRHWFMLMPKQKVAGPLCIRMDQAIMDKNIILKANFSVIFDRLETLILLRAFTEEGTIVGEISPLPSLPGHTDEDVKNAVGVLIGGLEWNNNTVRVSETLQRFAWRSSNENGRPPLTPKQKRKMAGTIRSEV
In experiment [16] the target is DNA dC->dU-editing enzyme APOBEC-3G (Homo sapiens, UniProt Q9HC16). Briefly: Dose Response confirmation of small molecule APOBEC3G DNA Deaminase Inhibitors via a fluorescence-based single-stranded DNA deaminase assay. [Related pubchem assays (depositor defined):AID493012, AID493028]. Type of experiment: functional.
Chain of DNA dC->dU-editing enzyme APOBEC-3G (Q9HC16 whole entry): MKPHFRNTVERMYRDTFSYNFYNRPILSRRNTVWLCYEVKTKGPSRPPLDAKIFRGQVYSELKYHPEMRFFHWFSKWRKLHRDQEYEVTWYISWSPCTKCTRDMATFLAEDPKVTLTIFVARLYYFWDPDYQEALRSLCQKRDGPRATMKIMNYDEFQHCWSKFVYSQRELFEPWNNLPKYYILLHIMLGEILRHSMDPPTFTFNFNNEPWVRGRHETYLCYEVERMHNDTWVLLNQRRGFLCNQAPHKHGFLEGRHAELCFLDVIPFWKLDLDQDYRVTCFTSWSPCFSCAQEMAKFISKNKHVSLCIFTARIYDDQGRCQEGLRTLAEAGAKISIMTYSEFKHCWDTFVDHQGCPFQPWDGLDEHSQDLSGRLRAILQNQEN
The target in experiment [17] is T2, Replicative DNA helicase DnaB (Mycobacterium tuberculosis, UniProt P9WMR3).
T2 sequence (P9WMR3 whole entry): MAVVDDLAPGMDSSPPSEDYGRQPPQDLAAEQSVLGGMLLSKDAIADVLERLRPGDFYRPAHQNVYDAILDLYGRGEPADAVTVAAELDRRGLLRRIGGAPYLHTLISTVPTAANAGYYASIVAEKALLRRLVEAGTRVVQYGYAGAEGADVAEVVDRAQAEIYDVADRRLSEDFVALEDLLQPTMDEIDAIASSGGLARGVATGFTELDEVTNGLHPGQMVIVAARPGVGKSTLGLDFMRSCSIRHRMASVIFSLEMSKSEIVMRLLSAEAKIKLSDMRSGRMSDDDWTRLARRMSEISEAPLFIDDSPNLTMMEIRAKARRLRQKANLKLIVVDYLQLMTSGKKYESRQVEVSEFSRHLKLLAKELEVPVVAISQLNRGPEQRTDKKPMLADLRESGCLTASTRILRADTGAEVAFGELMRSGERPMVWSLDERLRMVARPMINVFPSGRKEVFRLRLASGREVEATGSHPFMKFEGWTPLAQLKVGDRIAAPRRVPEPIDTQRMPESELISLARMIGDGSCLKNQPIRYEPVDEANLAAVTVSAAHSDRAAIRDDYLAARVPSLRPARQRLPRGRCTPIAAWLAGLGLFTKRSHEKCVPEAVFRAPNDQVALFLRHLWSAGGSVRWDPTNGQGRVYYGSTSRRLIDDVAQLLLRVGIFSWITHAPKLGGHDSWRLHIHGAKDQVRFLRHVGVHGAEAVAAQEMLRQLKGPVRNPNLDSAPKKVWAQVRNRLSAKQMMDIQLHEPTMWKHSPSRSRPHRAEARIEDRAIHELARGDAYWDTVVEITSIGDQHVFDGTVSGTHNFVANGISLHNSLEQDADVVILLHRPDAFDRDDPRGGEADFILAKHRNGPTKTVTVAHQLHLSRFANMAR
Briefly: DnaB intein splicing inhibitors, dose response, biochemical, cell-free fluorescence (AID 449749). The format is functional.

The next experiment concerns the target T3, Protein RecA (Mycobacterium tuberculosis, UniProt P9WHJ3).
T3 sequence (P9WHJ3 whole entry): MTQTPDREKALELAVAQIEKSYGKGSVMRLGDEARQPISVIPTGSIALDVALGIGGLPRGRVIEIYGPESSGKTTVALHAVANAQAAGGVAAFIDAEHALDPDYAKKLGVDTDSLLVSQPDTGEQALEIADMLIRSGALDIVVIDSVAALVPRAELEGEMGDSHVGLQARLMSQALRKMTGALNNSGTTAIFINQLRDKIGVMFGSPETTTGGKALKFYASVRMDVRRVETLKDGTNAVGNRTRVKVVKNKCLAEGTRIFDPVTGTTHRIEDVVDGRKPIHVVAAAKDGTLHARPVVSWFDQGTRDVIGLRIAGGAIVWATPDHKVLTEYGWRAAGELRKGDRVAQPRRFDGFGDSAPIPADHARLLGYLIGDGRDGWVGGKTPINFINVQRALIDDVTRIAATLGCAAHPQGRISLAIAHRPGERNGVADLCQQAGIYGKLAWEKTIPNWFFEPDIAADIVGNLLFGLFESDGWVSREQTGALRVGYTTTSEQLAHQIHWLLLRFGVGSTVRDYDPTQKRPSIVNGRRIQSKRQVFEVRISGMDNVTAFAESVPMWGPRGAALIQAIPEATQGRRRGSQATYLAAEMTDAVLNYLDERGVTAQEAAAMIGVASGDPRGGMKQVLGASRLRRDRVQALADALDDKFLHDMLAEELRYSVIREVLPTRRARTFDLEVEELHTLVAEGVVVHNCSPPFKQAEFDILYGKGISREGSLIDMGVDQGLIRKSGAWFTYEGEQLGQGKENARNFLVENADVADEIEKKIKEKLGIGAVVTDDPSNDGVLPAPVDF
In words: Fluorescence Cell-Free Homogeneous Dose Retest to Identify Inhibitors of RecA-Intein Splicing Activity. [Related pubchem assays (depositor defined):AID2097, AID2223, AID489010, AID492950]. The format is functional.

For the next experiment, the target named is Genome polyprotein (dengue virus type 2, UniProt P29990). Briefly: flavivirus cap methylation enzyme inhibition – biochemical, confirmation dose response, primary screen (AID 588689). The format is functional.
Chain of Genome polyprotein (P29990 2492-3391 limits assumed): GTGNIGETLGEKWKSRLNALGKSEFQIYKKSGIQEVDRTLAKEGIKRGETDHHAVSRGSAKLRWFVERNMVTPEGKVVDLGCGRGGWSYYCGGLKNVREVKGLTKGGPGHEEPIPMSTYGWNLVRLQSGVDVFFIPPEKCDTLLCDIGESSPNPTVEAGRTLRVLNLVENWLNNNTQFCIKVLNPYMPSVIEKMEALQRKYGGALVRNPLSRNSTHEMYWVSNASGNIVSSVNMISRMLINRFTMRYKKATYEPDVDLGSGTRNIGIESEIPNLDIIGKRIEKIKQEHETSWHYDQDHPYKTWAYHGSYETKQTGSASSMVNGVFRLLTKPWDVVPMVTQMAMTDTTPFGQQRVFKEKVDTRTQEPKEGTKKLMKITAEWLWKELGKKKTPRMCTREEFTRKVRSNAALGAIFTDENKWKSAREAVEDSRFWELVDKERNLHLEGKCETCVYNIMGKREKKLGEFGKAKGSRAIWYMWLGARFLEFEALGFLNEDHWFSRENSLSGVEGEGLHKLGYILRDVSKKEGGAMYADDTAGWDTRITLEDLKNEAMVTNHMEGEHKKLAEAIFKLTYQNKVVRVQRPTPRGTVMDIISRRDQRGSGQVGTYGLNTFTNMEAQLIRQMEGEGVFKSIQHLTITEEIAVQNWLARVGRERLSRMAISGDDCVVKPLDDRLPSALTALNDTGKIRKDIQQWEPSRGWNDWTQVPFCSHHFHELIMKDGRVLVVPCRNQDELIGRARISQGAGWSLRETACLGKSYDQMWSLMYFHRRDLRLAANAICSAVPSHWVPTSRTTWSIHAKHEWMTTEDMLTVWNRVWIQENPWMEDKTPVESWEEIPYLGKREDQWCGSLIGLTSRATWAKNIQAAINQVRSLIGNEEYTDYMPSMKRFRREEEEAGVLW

Each structure is given as a SMILES string. Active and inactive are the calls of the source. Where only a bound is given, the exact number is not on record here.

For `COc1ccc(NCc2nc3ccccc3n2CCOc2ccccc2)cc1`, the EC50 was 7.26 µM (active) in [1]; 53.4 µM (active) in experiment [2]; 79.8 µM (active) in the experiment on H4; 2.36 µM (active) in [3]; > 60 µM (not active) in experiment [5]. Moreover, the CC50 in experiment [4] is > 40 µM (active).
Turning to `COc1ccc(/C=N\NC(=O)c2ccccc2F)cc1COc1ccc(F)cc1F`, in experiment [6], the IC50 is > 80 µM (inactive).
Regarding `CCOc1cc(C(=O)N/N=C/C(Br)=C/c2ccccc2)cc(OCC)c1OCC`, the EC50 in experiment [7] was 1.39 µM (active); in [8], 1.34 µM (active). The IC50 in experiment [6] was > 80 µM (inactive).
`C=C(C)COc1ccc(-c2n[nH]cc2-c2ccc(OC)c(OC)c2)c(O)c1`: the concentration giving a half-maximal response (EC50) in the experiment on BJ [9] was 8.31 µM (active); in the experiment on BJ [10] it was 1.84 µM (active); in the experiment with BJ [11], 2.48 µM (active); in experiment [12] it was 2.4 µM (active). Besides, in experiment [13], the half-maximal activity concentration (AC50) is 0.882 µM (active). Also, in [6], the IC50 is 34.3 µM (inactive).
With `CCOC(=O)CSC1=C(C#N)C(c2ccc(C)s2)CC(=O)N1` (centres undefined), in experiment [6], the IC50 is > 80 µM (inactive).
As to `O=C(Nc1ccc(O)cc1)/C(=C\c1ccncc1)NC(=O)c1ccccc1`, the IC50 on Large T antigen was 27.7 µM (active).
On to `COc1cc(C(=O)Nc2cc(C)c(OCC(=O)N3CCOCC3)c(C)c2)cc(OC)c1OC`, for which the IC50 in experiment [14] was > 80 µM (inactive).
`COc1ccc(CNc2ccc(N3CCOCC3)cc2)cc1`: the IC50 on Large T antigen was 16.8 µM (active).
Turning to `C/C(=C/C(=O)N1CCN(C)CC1)C(=O)O`, the EC50 in [15] is 36.8 µM (active). Moreover, the IC50 at Prothrombin is listed as > 50 µM (not active).
For the compound `O=C(CCCN1C(=O)/C(=C/c2ccccc2Cl)SC1=S)Nc1cccnc1`, the IC50 in experiment [14] is > 80 µM (inactive).
`Cc1ccc(S(=O)(=O)N2CCN(C(=O)c3ccc(N4CCCC4)c([N+](=O)[O-])c3)CC2)cc1`: the IC50 on Nonstructural protein 1 is > 100 µM (active).
For `COc1ccc(-c2ccc(F)cc2)cc1[C@H]1[C@H]2C=CC[C@@H](C)[C@@H]2C(=O)N1Cc1ccccc1`, in [14], the IC50 is > 80 µM (inactive).
As to `CCCCC(=O)Nc1sc(C(=O)N(CC)CC)c(C)c1C(=O)OC`, the EC50 in experiment [15] is > 195 µM (not active). For the same compound, in [16], the IC50 was 49.6 µM (active).
Turning to `CCN(CC)Cc1nc(O)c2c(n1)-c1ccccc1CC2(CC)CC`, the CC50 in [4] is > 40 µM (active).
On to `Nn1c(SC/C=C/c2ccccc2)nnc1-c1ccccn1`, for which the concentration for half-maximal inhibition (IC50) on Nonstructural protein 1 is 24 µM (active).
`CC1=NN(Cc2ccccc2)C(=O)/C1=C/c1ccc(N(C)C)cc1`: the IC50 on Nonstructural protein 1 is 50.9 µM (active). Moreover, the concentration at half-maximal activity (AC50) in [17] is 4.15 µM (active). Besides, on Protein RecA, the EC50 is 1.22 µM (active).
`CN1CCN(C(=O)c2ccccc2N(Cc2ccccc2)S(=O)(=O)c2ccccc2)CC1`: in [14], the IC50 is > 80 µM (inactive).
Regarding `CCC1C(c2ccccc2)N(C)C(c2ccccc2)CC1(O)c1ccccc1` (centres undefined), the EC50 in experiment [3] is 2.31 µM (active); in experiment [5] it was > 60 µM (not active). In addition, the CC50 in experiment [4] was > 40 µM (active).
Turning to `CC1=C(C#N)c2nc(N)c(C#N)c(C)c2/C1=C\c1ccc(OCC(=O)O)c(Cl)c1`, in experiment [15], the EC50 is > 195 µM (not active). Further, the IC50 on Large T antigen is 44.3 µM (active); at Genome polyprotein, 35.9 µM (active).
